Data taken from patent publication US5773430A, “Serine proteinase inhibitory activity by hydrophobic tetracycline” (Research Foundation of State University of New York, priority 1997, dated 1998).

Tests used:
[1] = tested on: human neutrophils (live PMN's); experiment: Neutrophil (PMN + 0.5 nM PMA)-mediated R22-ECM hydrolysis (3H-proline cpm released in 6 h); format: cell-based; conditions: for ECM HYDROLYSIS (% CONTROL) / activity at 5 µM / activity at 25 µM / activity at 50 µM: control = hydrolysis in absence of any inhibitor normalized to 100%, 6 h at 37° C.; for activity at 5 µM / activity at 25 µM / activity at 50 µM: Homo sapiens, Neutrophil; for inhibition of ECM degradation, in words: 5-50 μM, Table 1 and FIG. 1
From the text: The activity of various tetracyclines was investigated employing an in vitro assay of inflammatory tissue injury in which human neutrophils are allowed to degrade a biosynthetically prepared complete interstitial stromal extracellular matrix (ECM). A neutrophil is one type of leukocyte (polymorphonuclear leukocyte). […] E. J. Roemer, K. J. Stanton, and S. R. Simon, "In Vitro Assay Systems for Inflammatory Cell-Mediated Damage to Interstitial Extracellular Matrix," In Vitro Toxicol. 7,75-81 (1994); E. J. Roemer, K. J. Stanton, and S. R. Simon, "In Vitro Assay Systems for Cell Interactions With Interstitial Extracellular Matrix," In Vitro Toxicol. 7,209-224 (1994).
The serine proteinase inhibiting activity of tetracyclines was tested using an in vitro assay of inflammatory tissue injury in which human neutrophils (live PMN's) were allowed to degrade a biosynthetically prepared complete interstitial stromal extracellular matrix (ECM) produced by cultured R22 rat heart smooth muscle cells as described by Roemer et al. (E. J. Roemer, K. J. Stanton, and S. R. Simon, "In Vitro Assay Systems for Inflammatory Cell-Mediated Damage to Interstitial Extracellular Matrix," In Vitro Toxicol. 7,75-81 (1994); E. J. Roemer, K. J. Stanton, and S. R. Simon, "In Vitro Assay Systems for Cell Interactions With Interstitial Extracellular Matrix," In Vitro Toxicol. 7,209-224 (1994)). Ten different chemically modified tetracyclines (CMTs) designated CMT-1 through CMT-10 and doxycycline, at concentrations ranging from 5 μM to 50 μM, were added to the ECM simultaneously with a suspension of 2×10^6 viable human PMN/mL in Hank's balanced salts solution (HBSS). In these studies, the ECM was metabolically radiolabeled with ^3 H-proline, and counts solubilized after six hours of incubation were measured and compared with counts released after incubation with PMN alone.

[2] = molecular target: T1, human leukocyte elastase (HLE) (Homo sapiens, UniProt P08246); experiment: HLE amidolytic activity (methoxysuccinyl-Ala-Ala-Pro-Val-p-nitroanilide); format: biochemical
T1 sequence (P08246 30-267): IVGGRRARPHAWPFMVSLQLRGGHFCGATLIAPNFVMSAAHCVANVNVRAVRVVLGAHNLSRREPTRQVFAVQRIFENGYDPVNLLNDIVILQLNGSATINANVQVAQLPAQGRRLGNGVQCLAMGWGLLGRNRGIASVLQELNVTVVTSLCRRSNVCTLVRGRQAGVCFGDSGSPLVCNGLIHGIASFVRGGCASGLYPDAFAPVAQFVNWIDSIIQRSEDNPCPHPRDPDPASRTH
From the text: This oligopeptide is generally assumed to occupy the first five subsites of the extended substrate binding domain in HLE.
To avoid time-dependent adsorption of HLE onto the wells of the 96-well microplates used in the amidolytic assays, the plates were pretreated with a solution of 0.2% bovine serum albumin. […] The […] concentration at which the Dixon plots intersect is a measure of Ki for the inhibitor.
The inhibitory activity of doxycycline towards amidolysis of methoxysuccinyl-Ala-Ala-Pro-Val-p-nitroanilide by HLE was also determined in the presence of 2% DMSO and no detergent, as described above for CMT-3.

Row | Compound | ECM HYDROLYSIS (% CONTROL) ([1]; 5 μm) | ECM HYDROLYSIS (% CONTROL) ([1]; 25 μm) | ECM HYDROLYSIS (% CONTROL) ([1]; 50 μm) | potency as inhibitors of the amidolytic activity of HLE, in words [2] | other results
1 | CC1(O)c2cccc(O)c2C(=O)C2=C(O)C3(O)C(=O)C(C(N)=O)=C(O)CC3CC21 (stereo not shown) [CMT-1, 4-de(dimethylamino)tetracycline] | 93 | 95 | 90 | – | –
2 | CN(C)C1C(=O)C(C#N)=C(O)C2(O)C(=O)C3=C(O)c4c(O)cccc4C(C)(O)C3CC12 (stereo not shown) [CMT-2, tetracyclinonitrile] | – | – | – | – | activity at 5 µM ([1]; 5 μm): 91%; activity at 25 µM ([1]; 25 μm): 95%; activity at 50 µM ([1]; 50 μm): 100%
3 | CC1(O)c2c(Cl)ccc(O)c2C(=O)C2=C(O)C3(O)C(=O)C(C(N)=O)=C(O)CC3CC21 (stereo not shown) [CMT-4, 7-chloro-4-de(dimethylamino)tetracycline] | 90 | 98 | 130 | – | –
4 | CC1(O)c2cccc(O)c2C(=O)C2=C(O)C3(O)C(=O)C(C(N)=O)=C(O)C(O)C3CC21 (stereo not shown) [CMT-6, 4-hydroxy-4-de(dimethylamino)tetracycline] | 109 | 101 | 97 | – | –
5 | CC1(O)c2cccc(O)c2C(=O)C2=C(O)C3C(=O)C(C(N)=O)=C(O)CC3CC21 (stereo not drawn) [CMT-7, 4-de(dimethylamino)-12α-deoxytetracycline] | 97 | 84 | 100 | – | –
6 | C[C@H]1c2cccc(O)c2C(O)=C2C(=O)[C@]3(O)C(O)=C(C(N)=O)C(=O)C[C@@H]3[C@@H](O)[C@@H]21 [CMT-8, 6-deoxy-5α-hydroxy-4-de(dimethylamino)tetracycline] | 96 | 82 | 57 | – | inhibition of ECM degradation, in words [1]: showed some inhibition of ECM degradation
7 | Cc1c2c(c(O)c3c(O)cccc13)C(=O)C1C(O)=C(C(N)=O)C(=O)CC1C2 (stereo not drawn) [CMT-9, 4-de(dimethylamino)-12α-deoxyanhydrotetracycline] | – | – | – | – | activity at 5 µM ([1]; 5 μm): 88%; activity at 25 µM ([1]; 25 μm): 215%; activity at 50 µM ([1]; 50 μm): 190%
8 | CN(C)c1ccc(O)c2c1C[C@H]1C[C@H]3CC(O)=C(C(N)=O)C(=O)[C@@]3(O)C(O)=C1C2=O [CMT-10, 4-de(dimethylamino)minocycline] | – | – | – | – | inhibition of ECM degradation, in words [1]: showed some inhibition of ECM degradation; activity at 5 µM ([1]; 5 μm): 101%; activity at 25 µM ([1]; 25 μm): 85%; activity at 50 µM ([1]; 50 μm): 80%
9 | Cc1c2c(c(O)c3c(O)ccc(Cl)c13)C(=O)C1(O)C(O)=C(C(N)=O)C(=O)C(N(C)C)C1C2 (stereo not shown) [anhydrochlorotetracycline] | – | – | – | comparably low or no potency | –
10 | CN(C)[C@@H]1C(O)=C(C(N)=O)C(=O)[C@@]2(O)C(O)=C3C(=O)c4c(O)ccc(Cl)c4[C@@](C)(O)[C@H]3C[C@@H]12 [chlorotetracycline] | – | – | – | comparably low or no potency | –
11 | CN(C)C1C(=O)C(C(N)=O)=C(O)C2(O)C(=O)C3=C(O)c4c(O)ccc(Cl)c4C(C)(O)C3CC12 (stereo not drawn) [epi-chlorotetracycline] | – | – | – | comparably low or no potency | –
12 | CN(C)C1C(=O)C(C(N)=O)=C(O)C2(O)C(=O)C3=C(O)c4c(O)cccc4C(C)(O)C3C(O)C12 (stereo not shown) [oxytetracycline] | – | – | – | comparably low or no potency | –
13 | tetracycline pyrazole [CMT-5] | 78 | 112 | 102 | comparably low or no potency | –
